From ChEMBL document CHEMBL5042500 (J Med Chem, 2022)
Converted amounts (≈) assume the structure as drawn.

What was measured:
[1] = Intrinsic clearance in human hepatocytes assessed per 10^-6 cells; type: ADME, cell-based, Hepatocyte
[2] = Inhibition of rat SGK1 in presence 500 uM presence of ATP
[3] = Metabolic stability in CD1 mouse liver microsomes assessed as compound degradation in presence of NADPH measured after 20 mins; type: ADME, Microsome; conditions: read-out: Drug degradation
[4] = Tmax in Lewis rat plasma at 30 mg/kg, po measured after 8 hrs; type: ADME, organism-based
[5] = Initial plasma concentration in C57BL/6 mouse at 3 mg/kg, iv; type: ADME, organism-based
[6] = AUC (0 to 24 hrs) in C57BL/6 mouse at 30 mg/kg, po; type: ADME, organism-based; set-up: time < 24 hr, route oral, dose 30 mg/kg; conditions: in vivo
[7] = Oral bioavailability in C57BL/6 mouse at 30 mg/kg; type: ADME, organism-based; conditions: in vivo
[8] = Metabolic stability in Sprague-Dawley rat liver microsomes assessed as compound degradation in presence of NADPH measured after 20 mins; type: ADME, Microsome; conditions: read-out: Drug degradation
[9] = AUC (0 to 24 hrs) in Lewis rat femoral head cartilage at 30 mg/kg, po measured after 8 hrs; type: ADME, organism-based, Femur; set-up: route oral, dose 30 mg/kg, time 8 hrs
Salmonella typhimurium [10] = experiment: Mutagenicity in Salmonella typhimurium […] by ames test; type: toxicity, organism-based; conditions: salmonella enterica subsp. enterica serovar typhimurium
[11] = AUC (0 to 24 hrs) in Lewis rat plasma at 30 mg/kg, po measured after 8 hrs; type: ADME, organism-based; set-up: route oral, dose 30 mg/kg, time 8 hrs
[12] = Solubility of the compound in FeSSIF at pH 5.0; type: physicochemical
[13] = Cmax in Lewis rat femoral head cartilage at 30 mg/kg, po measured after 8 hrs; type: ADME, organism-based, Femur; set-up: route oral, time 8 hrs, dose 30 mg/kg
[14] = Metabolic stability in human liver microsomes assessed as compound degradation in presence of NADPH measured after 20 mins; type: ADME, Microsome; conditions: read-out: Drug degradation
Salmonella typhimurium [15] = experiment: Mutagenicity in Salmonella typhimurium […] in presence of S9 fraction by ames test; type: toxicity, organism-based; conditions: salmonella enterica subsp. enterica serovar typhimurium
hERG (KCNH2) [16] = biological target: T1, hERG (KCNH2) (Homo sapiens, UniProt Q12809); experiment: Inhibition of human ERG at 10 uM; type: toxicity
T1 sequence (Q12809 whole entry): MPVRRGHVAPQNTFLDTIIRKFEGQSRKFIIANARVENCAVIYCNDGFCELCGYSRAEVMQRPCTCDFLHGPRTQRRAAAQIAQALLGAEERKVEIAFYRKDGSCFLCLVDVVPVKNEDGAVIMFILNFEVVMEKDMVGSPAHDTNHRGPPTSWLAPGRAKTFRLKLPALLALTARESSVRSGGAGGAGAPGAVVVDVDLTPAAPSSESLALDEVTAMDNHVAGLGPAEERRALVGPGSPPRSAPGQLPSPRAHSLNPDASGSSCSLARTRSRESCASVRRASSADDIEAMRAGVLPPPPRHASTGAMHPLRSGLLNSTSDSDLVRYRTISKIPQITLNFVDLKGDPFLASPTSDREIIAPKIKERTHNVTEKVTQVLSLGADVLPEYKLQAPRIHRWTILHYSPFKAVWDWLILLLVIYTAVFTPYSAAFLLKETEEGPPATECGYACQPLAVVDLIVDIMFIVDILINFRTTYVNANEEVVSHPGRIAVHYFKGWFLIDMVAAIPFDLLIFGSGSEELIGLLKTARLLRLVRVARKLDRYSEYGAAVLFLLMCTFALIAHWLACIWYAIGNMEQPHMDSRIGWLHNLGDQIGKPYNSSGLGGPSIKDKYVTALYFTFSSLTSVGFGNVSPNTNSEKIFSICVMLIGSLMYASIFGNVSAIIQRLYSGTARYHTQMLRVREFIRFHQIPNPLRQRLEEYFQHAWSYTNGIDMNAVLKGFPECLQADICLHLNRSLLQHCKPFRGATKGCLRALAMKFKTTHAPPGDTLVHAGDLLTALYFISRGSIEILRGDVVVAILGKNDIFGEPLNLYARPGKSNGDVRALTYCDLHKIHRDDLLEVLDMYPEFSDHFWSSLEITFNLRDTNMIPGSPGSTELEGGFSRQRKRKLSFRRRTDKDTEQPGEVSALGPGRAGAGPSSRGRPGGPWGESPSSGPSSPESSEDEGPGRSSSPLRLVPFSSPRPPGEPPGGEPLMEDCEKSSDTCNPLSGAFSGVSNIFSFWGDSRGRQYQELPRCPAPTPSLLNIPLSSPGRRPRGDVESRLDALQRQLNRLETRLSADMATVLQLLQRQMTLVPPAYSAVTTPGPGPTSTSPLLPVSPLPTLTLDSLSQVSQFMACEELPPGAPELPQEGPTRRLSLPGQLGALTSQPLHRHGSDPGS

[17] = Chemical stability of the compound at pH 7.4 measured after 24 hrs; type: physicochemical; conditions: buffer, read-out: Stability
[18] = Half life in C57BL/6 mouse plasma at 3 mg/kg, iv; type: ADME, organism-based
[19] = Effect on chondrocyte hypertrophic differentiation mouse ATDC-5 cells assessed as inhibition of […] gene expression incubated for 2 weeks followed by compound added and every 3 days medium is changed measured after 2 weeks by RT-qPCR analysis; type: functional, cell-based
[20] = Ratio of AUC(0 to 24 hrs) in femoral head to plasma in rat measured after 24 hrs; type: ADME, Bone/Plasma; conditions: read-out: Selectivity ratio
[21] = Tmax in C57BL/6 mouse plasma at 30 mg/kg, po; type: ADME, organism-based
CYP3A4 = CYP3A4 (Homo sapiens, UniProt P08684); experiment: Inhibition of CYP3A4 in human liver microsomes by measuring maximum efficacy; type: ADME
Sequence of CYP3A4 (P08684 whole entry): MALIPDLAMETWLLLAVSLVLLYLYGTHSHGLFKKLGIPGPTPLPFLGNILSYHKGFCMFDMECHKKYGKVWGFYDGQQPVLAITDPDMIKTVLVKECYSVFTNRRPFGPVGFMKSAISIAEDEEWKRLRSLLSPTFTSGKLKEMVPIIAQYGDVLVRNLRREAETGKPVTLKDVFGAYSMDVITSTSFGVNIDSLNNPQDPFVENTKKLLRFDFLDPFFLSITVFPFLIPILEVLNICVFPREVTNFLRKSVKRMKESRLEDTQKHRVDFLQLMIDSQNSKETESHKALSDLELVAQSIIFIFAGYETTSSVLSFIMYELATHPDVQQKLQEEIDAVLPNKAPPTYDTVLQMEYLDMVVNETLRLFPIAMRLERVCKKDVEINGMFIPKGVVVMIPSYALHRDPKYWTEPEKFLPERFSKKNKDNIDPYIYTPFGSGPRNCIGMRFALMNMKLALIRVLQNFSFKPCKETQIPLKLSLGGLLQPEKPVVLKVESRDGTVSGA

[22] = Half life in C57BL/6 mouse plasma at 30 mg/kg, po measured after 8 hrs; type: ADME, organism-based
[23] = Ratio of AUC(0 to 24 hrs) in femoral head to plasma in rat measured after 1 hrs; type: ADME, Bone/Plasma; conditions: read-out: Selectivity ratio
[24] = Aqueous solubility of the compound at pH 7.4; type: physicochemical
Cytochrome P450 3A4 [25] = biological target: T2, Cytochrome P450 3A4 (Homo sapiens, UniProt P08684); experiment: Inhibition of CYP3A4 in human liver microsomes using testosterone as substrate incubated for 30 mins by LC-MS/MS analysis; type: ADME
T2 sequence (P08684 whole entry): as above

[26] = biological target: T3, Serine/threonine-protein kinase Sgk1 (Homo sapiens, UniProt O00141); experiment: Inhibition of recombinant human SGK1 expressed in baculovirus expression system using 5-carboxyfluorescein -RPRAATF-NH2 as substrate preincubated for 30 mins followed by substrate addition in presence of 10 uM ATP and measured after 60 mins by microfluidics assay
T3 sequence (O00141 whole entry): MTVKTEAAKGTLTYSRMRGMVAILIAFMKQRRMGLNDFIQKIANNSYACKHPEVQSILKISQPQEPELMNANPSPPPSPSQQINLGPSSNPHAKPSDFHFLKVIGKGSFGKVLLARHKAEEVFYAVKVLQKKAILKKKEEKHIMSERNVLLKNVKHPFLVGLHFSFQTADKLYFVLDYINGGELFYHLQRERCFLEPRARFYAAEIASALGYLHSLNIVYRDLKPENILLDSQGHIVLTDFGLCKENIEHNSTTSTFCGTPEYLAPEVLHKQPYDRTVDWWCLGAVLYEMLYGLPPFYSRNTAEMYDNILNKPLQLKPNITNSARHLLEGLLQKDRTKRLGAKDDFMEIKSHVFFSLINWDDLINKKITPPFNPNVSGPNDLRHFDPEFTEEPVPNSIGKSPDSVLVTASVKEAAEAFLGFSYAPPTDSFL

[27] = Permeability in human Caco2 cells at 20 uM incubated for 120 mins by ESI-MS/MS analysis; type: ADME, cell-based; conditions: Caco-2, read-out: permeability
[28] = AUC (0 to 24 hrs) in C57BL/6 mouse at 3 mg/kg, iv; type: ADME, organism-based; set-up: time < 24 hr, route intravenous, dose 3 mg/kg; conditions: in vivo
[29] = Tmax in Lewis rat femoral head cartilage at 30 mg/kg, po measured after 8 hrs; type: ADME, organism-based, Femur
Cytochrome P450 3A4 [30] = biological target: T2, Cytochrome P450 3A4; experiment: Inhibition of CYP3A4 in human liver microsomes using midazolam as substrate incubated for 10 mins by LC-MS/MS analysis; type: ADME
[31] = Intrinsic clearance in C57BL/6 mouse at 3 mg/kg, iv; type: ADME, organism-based; conditions: in vivo
[32] = Distribution coefficient, logD of compound at pH 7.4 by chromatographic analysis; type: physicochemical; conditions: octanol/water
[33] = Volume of distribution at steady state in C57BL/6 mouse at 3 mg/kg, iv qd; type: ADME, organism-based; conditions: in vivo, read-out: Vdss
Homo sapiens = species on record: Homo sapiens; experiment: Inhibition of p70S6Kb kinase (unknown origin) at 0.1 uM
[34] = biological target: T4, Serine/threonine-protein kinase Sgk1 (Mus musculus, UniProt Q9WVC6); experiment: Inhibition of mouse SGK1 in presence 500 uM presence of ATP
T4 sequence (Q9WVC6 whole entry): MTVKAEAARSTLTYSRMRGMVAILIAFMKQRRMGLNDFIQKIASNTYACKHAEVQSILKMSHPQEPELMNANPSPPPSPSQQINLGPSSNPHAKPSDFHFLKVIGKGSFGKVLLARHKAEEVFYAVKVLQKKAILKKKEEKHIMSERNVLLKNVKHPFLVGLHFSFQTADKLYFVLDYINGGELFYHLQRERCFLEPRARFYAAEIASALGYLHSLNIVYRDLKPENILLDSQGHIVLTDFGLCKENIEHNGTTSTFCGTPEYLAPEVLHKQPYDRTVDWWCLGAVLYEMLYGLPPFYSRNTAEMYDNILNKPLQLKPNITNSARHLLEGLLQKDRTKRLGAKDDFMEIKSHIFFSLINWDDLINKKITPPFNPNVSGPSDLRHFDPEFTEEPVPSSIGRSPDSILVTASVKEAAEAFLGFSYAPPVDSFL

[35] = Cmax in Lewis rat plasma at 30 mg/kg, po measured after 8 hrs; type: ADME, organism-based; set-up: route oral, time 8 hrs, dose 30 mg/kg
[36] = Cmax in C57BL/6 mouse plasma at 30 mg/kg, po measured after 8 hrs; type: ADME, organism-based; set-up: route oral, time 8 hrs, dose 30 mg/kg
[37] = biological target: Ribosomal protein S6 kinase alpha-1 (Homo sapiens) (UniProt Q15418); experiment: Inhibition of RSK1 kinase (unknown origin) at 0.1 uM
Sequence of Ribosomal protein S6 kinase alpha-1 (Homo sapiens) (Q15418 whole entry): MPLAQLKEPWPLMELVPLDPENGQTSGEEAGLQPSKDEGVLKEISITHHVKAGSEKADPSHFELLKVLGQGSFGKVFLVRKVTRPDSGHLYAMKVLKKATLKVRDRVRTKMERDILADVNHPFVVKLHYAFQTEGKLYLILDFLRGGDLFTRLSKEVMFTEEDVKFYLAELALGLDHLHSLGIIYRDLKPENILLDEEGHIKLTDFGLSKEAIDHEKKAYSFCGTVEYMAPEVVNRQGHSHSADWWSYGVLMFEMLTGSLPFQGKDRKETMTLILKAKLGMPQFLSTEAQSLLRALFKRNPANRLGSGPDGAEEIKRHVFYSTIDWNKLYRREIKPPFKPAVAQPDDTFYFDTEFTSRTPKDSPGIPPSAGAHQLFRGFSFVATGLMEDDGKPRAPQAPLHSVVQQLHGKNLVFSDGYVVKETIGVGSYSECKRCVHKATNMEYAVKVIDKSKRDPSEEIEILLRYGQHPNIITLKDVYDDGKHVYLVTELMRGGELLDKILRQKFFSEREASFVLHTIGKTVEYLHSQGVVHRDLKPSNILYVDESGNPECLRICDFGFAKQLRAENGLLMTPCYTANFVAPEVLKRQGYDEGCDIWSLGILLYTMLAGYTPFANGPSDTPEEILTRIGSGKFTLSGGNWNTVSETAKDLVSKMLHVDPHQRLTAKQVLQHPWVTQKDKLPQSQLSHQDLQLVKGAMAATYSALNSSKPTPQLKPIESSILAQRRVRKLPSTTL

[38] = biological target: T3, Serine/threonine-protein kinase Sgk1; experiment: Inhibition of recombinant human SGK1 expressed in baculovirus expression system using 5-carboxyfluorescein -RPRAATF-NH2 as substrate preincubated for 30 mins followed by substrate addition in presence of 500 uM ATP and measured after 60 mins by microfluidics assay
hERG (KCNH2) [39] = biological target: T1, hERG (KCNH2); experiment: Inhibition of human ERG at 1 uM relative to control; type: toxicity

CLH [1]: 0.042 mL/h
IC50 [2]: 224 nM
metabolised at 20 min [3]: 15%
Tmax [4]: 8 h
C0 [5]: 2200 ng/mL
AUC(0-t) at 24 h [6]: 22800 ng·h/mL
bioavailability [7]: 72%
metabolised at 20 min [8]: 12%
AUC(0-t) at 8 h [9]: 16900 ng·h/mL
AUC(0-t) at 8 h [11]: 60100 ng·h/mL
solubility [12]: 281 µg/mL (≈ 503 µM)
Cmax [13]: 1200 ng/g
metabolised at 20 min [14]: 9%
remaining at 24 h [17]: 100%
half-life [18]: 2.1 h
Tmax [21]: 3.3 h
Emax (CYP3A4): 0%
half-life [22]: 4.8 h
solubility [24]: < 1 µg/mL
IC50 (Cytochrome P450 3A4 [25]): > 30000 nM
IC50 [26]: 2 nM
Papp at 2 h, 20 µM [27]: 4.6 ×10⁻⁶ cm/s
AUC(0-t) at 24 h [28]: 3200 ng·h/mL
Tmax [29]: 8 h
IC50 (Cytochrome P450 3A4 [30]): > 30000 nM
CL [31]: 17 mL/min/kg
chromatographic logD [32]: 1.3
Vd [33]: 2.4 L/kg
inhibition (Homo sapiens): 58%
IC50 [34]: 171 nM
Cmax [35]: 4200 ng/mL
Cmax [36]: 2200 ng/mL
inhibition [37]: 64%
IC50 [38]: 3 nM
SMILES: Cc1n[nH]c2nc(-c3ccc(NS(=O)(=O)c4cc(Cl)ccc4F)cc3)nc(OC3CCN(C(C)C)CC3)c12
Activity (Salmonella typhimurium [10]): Non-Toxic
Activity (Salmonella typhimurium [15]): Non-Toxic
inhibition at 10 µM (hERG (KCNH2) [16]): 91%
IC50 [19]: 70 nM
Kp at 24 h [20]: 1.1
Kp at 1 h [23]: 0.1
inhibition at 1 µM (hERG (KCNH2) [39]): 60%
